Experimental data published in PubChem BioAssay (NCI).
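Values below derive from 48-hour exposures of cells grown in 96-well plates, with endpoints linearly interpolated between the two concentrations bracketing the appropriate inhibition level. TGI: concentration producing complete growth inhibition.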

Legend:
Assay in all cases: NCI-60 cell line screen, 48 h
NCI-H460 lung = system: NCI-H460 lung
SK-MEL-5 melanoma = system: SK-MEL-5 melanoma
SK-OV-3 ovarian = system: SK-OV-3 ovarian
MDA-MB-231 breast = system: MDA-MB-231 breast
NCI/ADR-RES ovarian = system: NCI/ADR-RES ovarian
MDA-MB-435 = system: MDA-MB-435
SF-268 CNS = system: SF-268 CNS
SK-MEL-28 melanoma = system: SK-MEL-28 melanoma
OVCAR-3 ovarian = system: OVCAR-3 ovarian
A549 NSCLC = system: A549 NSCLC
SF-295 CNS = system: SF-295 CNS
UO-31 renal = system: UO-31 renal
RXF 393 renal = system: RXF 393 renal
SW-620 colon = system: SW-620 colon
HOP-62 NSCLC = system: HOP-62 NSCLC
SNB-75 CNS = system: SNB-75 CNS
BT-549 breast = system: BT-549 breast
COLO 205 colon = system: COLO 205 colon
M14 melanoma = system: M14 melanoma
MCF7 breast = system: MCF7 breast
A498 renal = system: A498 renal
SK-MEL-2 melanoma = system: SK-MEL-2 melanoma
NCI-H226 lung = system: NCI-H226 lung
HCT-15 colon = system: HCT-15 colon
HCT-116 colon = system: HCT-116 colon
HL-60(TB) leukemia = system: HL-60(TB) leukemia
HOP-92 NSCLC = system: HOP-92 NSCLC
SN12C renal = system: SN12C renal
EKVX NSCLC = system: EKVX NSCLC
RPMI-8226 leukemia = system: RPMI-8226 leukemia
NCI-H23 lung = system: NCI-H23 lung
OVCAR-8 ovarian = system: OVCAR-8 ovarian
ACHN renal = system: ACHN renal
CCRF-CEM leukemia = system: CCRF-CEM leukemia
HS 578T breast = system: HS 578T breast
PC-3 prostate = system: PC-3 prostate
TK-10 renal = system: TK-10 renal
KM12 colon = system: KM12 colon
MDA-N = system: MDA-N
HT29 colon = system: HT29 colon
U251 CNS = system: U251 CNS
K-562 leukemia = system: K-562 leukemia
T-47D breast = system: T-47D breast
LOX IMVI melanoma = system: LOX IMVI melanoma
786-0 renal = system: 786-0 renal
OVCAR-5 ovarian = system: OVCAR-5 ovarian
OVCAR-4 ovarian = system: OVCAR-4 ovarian
CAKI-1 renal = system: CAKI-1 renal
SF-539 CNS = system: SF-539 CNS
UACC-257 melanoma = system: UACC-257 melanoma
UACC-62 melanoma = system: UACC-62 melanoma
IGROV1 ovarian = system: IGROV1 ovarian
SNB-19 CNS = system: SNB-19 CNS
DU-145 prostate = system: DU-145 prostate
MOLT-4 leukemia = system: MOLT-4 leukemia
HCC-2998 colon = system: HCC-2998 colon
SR leukemia = system: SR leukemia
NCI-H522 lung = system: NCI-H522 lung
MALME-3M melanoma = system: MALME-3M melanoma

CC1=CC(C2/C(=N/O)C=C(C)CC2(C)C)C(O)C(C)(C)C1 (stereo not drawn)
TGI (NCI-H460 lung): 43.1 µM | TGI (SK-MEL-5 melanoma): 29.5 µM | TGI (SK-OV-3 ovarian): 38.1 µM | TGI (MDA-MB-231 breast): 31.6 µM | TGI (NCI/ADR-RES ovarian): 33.5 µM | TGI (MDA-MB-435): 31.2 µM | TGI (SF-268 CNS): 37.1 µM | TGI (SK-MEL-28 melanoma): 30.9 µM | TGI (OVCAR-3 ovarian): 23.3 µM | TGI (A549 NSCLC): 29.6 µM | TGI (SF-295 CNS): 32.9 µM | TGI (UO-31 renal): 29 µM | TGI (RXF 393 renal): 30 µM | TGI (SW-620 colon): 41.8 µM | TGI (HOP-62 NSCLC): 29.5 µM | TGI (SNB-75 CNS): 29.2 µM | TGI (BT-549 breast): 32.8 µM | TGI (COLO 205 colon): 36 µM | TGI (M14 melanoma): 28.9 µM | TGI (MCF7 breast): 30.4 µM | TGI (A498 renal): 33.3 µM | TGI (SK-MEL-2 melanoma): 30.6 µM | TGI (NCI-H226 lung): 33.7 µM | TGI (HCT-15 colon): 33.6 µM | TGI (HCT-116 colon): 29.3 µM | TGI (HL-60(TB) leukemia): 37.2 µM | TGI (HOP-92 NSCLC): 27.5 µM | TGI (SN12C renal): 33.3 µM | TGI (EKVX NSCLC): 31.4 µM | TGI (RPMI-8226 leukemia): 33.6 µM | TGI (NCI-H23 lung): 32.8 µM | TGI (OVCAR-8 ovarian): 33.8 µM | TGI (ACHN renal): 34 µM | TGI (CCRF-CEM leukemia): 60.4 µM | TGI (HS 578T breast): > 100 µM | TGI (PC-3 prostate): 29.8 µM | TGI (TK-10 renal): 35.2 µM | TGI (KM12 colon): 31.6 µM | TGI (MDA-N): 31.9 µM | TGI (HT29 colon): 29.3 µM | TGI (U251 CNS): 29.6 µM | TGI (K-562 leukemia): 32.1 µM | TGI (T-47D breast): 28.1 µM | TGI (LOX IMVI melanoma): 32.3 µM | TGI (786-0 renal): 31.8 µM | TGI (OVCAR-5 ovarian): 34.8 µM | TGI (OVCAR-4 ovarian): 29.8 µM | TGI (CAKI-1 renal): 28.2 µM | TGI (SF-539 CNS): 41.7 µM | TGI (UACC-257 melanoma): 30.1 µM | TGI (UACC-62 melanoma): 29.4 µM | TGI (IGROV1 ovarian): 32.6 µM | TGI (SNB-19 CNS): 29.5 µM | TGI (DU-145 prostate): 29.1 µM | TGI (MOLT-4 leukemia): 31.3 µM | TGI (HCC-2998 colon): 30 µM

CN(C)C1=Nc2ccccc2C(=S)N2CSCC12 (stereo not drawn)
TGI (NCI-H460 lung): > 100 µM | TGI (SK-MEL-5 melanoma): > 100 µM | TGI (SK-OV-3 ovarian): > 100 µM | TGI (MDA-MB-231 breast): > 100 µM | TGI (NCI/ADR-RES ovarian): > 100 µM | TGI (MDA-MB-435): > 100 µM | TGI (SF-268 CNS): > 100 µM | TGI (SK-MEL-28 melanoma): > 100 µM | TGI (OVCAR-3 ovarian): > 100 µM | TGI (A549 NSCLC): > 100 µM | TGI (SF-295 CNS): > 100 µM | TGI (SR leukemia): 48 µM | TGI (UO-31 renal): > 100 µM | TGI (RXF 393 renal): > 100 µM | TGI (SW-620 colon): > 100 µM | TGI (HOP-62 NSCLC): > 100 µM | TGI (SNB-75 CNS): > 100 µM | TGI (BT-549 breast): > 100 µM | TGI (COLO 205 colon): 52 µM | TGI (M14 melanoma): > 100 µM | TGI (MCF7 breast): > 100 µM | TGI (A498 renal): > 100 µM | TGI (SK-MEL-2 melanoma): > 100 µM | TGI (NCI-H226 lung): > 100 µM | TGI (HCT-15 colon): > 100 µM | TGI (HCT-116 colon): > 100 µM | TGI (SN12C renal): > 100 µM | TGI (EKVX NSCLC): > 100 µM | TGI (RPMI-8226 leukemia): > 100 µM | TGI (OVCAR-8 ovarian): > 100 µM | TGI (ACHN renal): > 100 µM | TGI (CCRF-CEM leukemia): 45.1 µM | TGI (HS 578T breast): > 100 µM | TGI (PC-3 prostate): > 100 µM | TGI (TK-10 renal): > 100 µM | TGI (NCI-H522 lung): 29 µM | TGI (KM12 colon): > 100 µM | TGI (MDA-N): > 100 µM | TGI (HT29 colon): > 100 µM | TGI (U251 CNS): > 100 µM | TGI (MALME-3M melanoma): 51.8 µM | TGI (K-562 leukemia): > 100 µM | TGI (T-47D breast): > 100 µM | TGI (LOX IMVI melanoma): > 100 µM | TGI (786-0 renal): 62.2 µM | TGI (OVCAR-5 ovarian): > 100 µM | TGI (OVCAR-4 ovarian): > 100 µM | TGI (CAKI-1 renal): 45 µM | TGI (UACC-257 melanoma): > 100 µM | TGI (UACC-62 melanoma): > 100 µM | TGI (IGROV1 ovarian): 52.3 µM | TGI (SNB-19 CNS): > 100 µM | TGI (DU-145 prostate): > 100 µM | TGI (MOLT-4 leukemia): 54.1 µM | TGI (HCC-2998 colon): > 100 µM

COc1cc(/C=C2\C[C@H]3[C@@H]4CC=C5C[C@@H](O)CC[C@]5(C)[C@H]4CC[C@]3(C)C2=O)cc(OC)c1OC
TGI (NCI-H460 lung): > 100 µM | TGI (SK-MEL-5 melanoma): 31.9 µM | TGI (SK-OV-3 ovarian): > 100 µM | TGI (MDA-MB-231 breast): 81.1 µM | TGI (NCI/ADR-RES ovarian): > 100 µM | TGI (MDA-MB-435): > 100 µM | TGI (SF-268 CNS): > 100 µM | TGI (SK-MEL-28 melanoma): > 100 µM | TGI (OVCAR-3 ovarian): > 100 µM | TGI (A549 NSCLC): > 100 µM | TGI (SF-295 CNS): 52.7 µM | TGI (UO-31 renal): > 100 µM | TGI (RXF 393 renal): 58 µM | TGI (SW-620 colon): > 100 µM | TGI (HOP-62 NSCLC): > 100 µM | TGI (SNB-75 CNS): 96.3 µM | TGI (BT-549 breast): > 100 µM | TGI (COLO 205 colon): 54.9 µM | TGI (M14 melanoma): 81.8 µM | TGI (MCF7 breast): > 100 µM | TGI (A498 renal): > 100 µM | TGI (SK-MEL-2 melanoma): 65.4 µM | TGI (NCI-H226 lung): > 100 µM | TGI (HCT-15 colon): > 100 µM | TGI (HCT-116 colon): 47.3 µM | TGI (HL-60(TB) leukemia): 2.25 µM | TGI (HOP-92 NSCLC): > 100 µM | TGI (SN12C renal): > 100 µM | TGI (EKVX NSCLC): > 100 µM | TGI (RPMI-8226 leukemia): 45.4 µM | TGI (NCI-H23 lung): > 100 µM | TGI (OVCAR-8 ovarian): > 100 µM | TGI (ACHN renal): > 100 µM | TGI (HS 578T breast): > 100 µM | TGI (PC-3 prostate): > 100 µM | TGI (TK-10 renal): > 100 µM | TGI (NCI-H522 lung): 67.8 µM | TGI (KM12 colon): > 100 µM | TGI (MDA-N): 87.1 µM | TGI (HT29 colon): 47.7 µM | TGI (U251 CNS): > 100 µM | TGI (MALME-3M melanoma): > 100 µM | TGI (K-562 leukemia): > 100 µM | TGI (T-47D breast): 64.2 µM | TGI (LOX IMVI melanoma): 53.8 µM | TGI (786-0 renal): 89.5 µM | TGI (OVCAR-5 ovarian): > 100 µM | TGI (OVCAR-4 ovarian): 96.6 µM | TGI (CAKI-1 renal): > 100 µM | TGI (SF-539 CNS): > 100 µM | TGI (UACC-257 melanoma): > 100 µM | TGI (UACC-62 melanoma): > 100 µM | TGI (IGROV1 ovarian): > 100 µM | TGI (SNB-19 CNS): > 100 µM | TGI (DU-145 prostate): > 100 µM | TGI (MOLT-4 leukemia): 68.4 µM | TGI (HCC-2998 colon): 98.1 µM
